Laboratory results from publication PMC8364686, “Safety, tolerability, pharmacokinetics and pharmacodynamics of single oral doses of BI 187004, an inhibitor of 11beta-hydroxysteroid dehydrogenase-1, in healthy male volunteers with overweight or obesity” (Clinical Diabetes and Endocrinology, 2021).
Where “and” joins values, the source holds several entries; their conditions need not be identical. Identical values can stand only once.

Assay: Plasma pharmacokinetics of BI 187004 after single oral doses (LC–MS/MS)
Details: for BI 187004 plasma concentrations: individual subjects
[1] = male, human, plasma, po, 2.5 mg
[2] = male, human, plasma, po, 2.5 mg, Plasma concentration Mean, 2.5 mg single oral
[3] = male, human, plasma, po, 2.5 mg, Plasma concentration Median, 2.5 mg single oral
[4] = male, human, plasma, po, 2.5 mg, Plasma concentration gMean, 2.5 mg single oral

Protocol: This was a randomized, double-blind, placebo-controlled, single rising dose study conducted at a single center in Germany. […] Follow-up on an ambulatory basis was performed between 11 and 15 days after study drug administration. […] At the time of use the oral solution for dosing was prepared using the PFOS and a co-supplied aqueous solvent containing HP-beta-cyclodextrin 100 mg/mL. The lowest dose level solutions were prepared by further dilution of the lower concentration solution with additional solvent.
For each accepted run, the acceptance criteria for the calibration standards and quality controls were met.

N#Cc1ccc2c(c1)[C@H]1CCCN(C(=O)c3ccc4[nH]cnc4c3)[C@H]1C2 [BI 187004]
Plasma concentration, individual subjects (2.5 mg single oral, planned time 0.5 h): BLQ (Below Limit of Quantification (<3.00 nmol/L)) and 5.84 nmol/L and 15.8 nmol/L and 8.84 nmol/L
Plasma concentration, individual subjects (2.5 mg single oral, planned time 1 h): BLQ (Below Limit of Quantification (<3.00 nmol/L)) and 6.77 nmol/L and 28.4 nmol/L and 17.6 nmol/L and 7.86 nmol/L and 5.64 nmol/L
Plasma concentration, individual subjects (2.5 mg single oral, planned time 1.5 h): BLQ (Below Limit of Quantification (<3.00 nmol/L)) and 6.06 nmol/L and 17.2 nmol/L and 14.9 nmol/L and 12.1 nmol/L and 5.62 nmol/L
Plasma concentration, individual subjects (2.5 mg single oral, planned time 2 h): BLQ (Below Limit of Quantification (<3.00 nmol/L)) and 4.97 nmol/L and 13.8 nmol/L and 11.0 nmol/L and 9.41 nmol/L and 4.67 nmol/L
Plasma concentration, individual subjects (2.5 mg single oral, planned time 2.5 h): BLQ (Below Limit of Quantification (<3.00 nmol/L)) and 4.45 nmol/L and 12.5 nmol/L and 10.1 nmol/L and 8.45 nmol/L
Plasma concentration, individual subjects (2.5 mg single oral, planned time 3 h): BLQ (Below Limit of Quantification (<3.00 nmol/L)) and 3.48 nmol/L and 11.9 nmol/L and 8.37 nmol/L and 6.66 nmol/L and 3.95 nmol/L
Plasma concentration, individual subjects (2.5 mg single oral, planned time 4 h): BLQ (Below Limit of Quantification (<3.00 nmol/L)) and 3.40 nmol/L and 10.7 nmol/L and 7.79 nmol/L and 6.03 nmol/L and 4.09 nmol/L
Plasma concentration, individual subjects (2.5 mg single oral, planned time 5 h): BLQ (Below Limit of Quantification (<3.00 nmol/L)) and 9.77 nmol/L and 7.70 nmol/L and 6.49 nmol/L and 3.91 nmol/L
Plasma concentration, individual subjects (2.5 mg single oral, planned time 6 h): BLQ (Below Limit of Quantification (<3.00 nmol/L)) and 7.52 nmol/L and 6.22 nmol/L and 5.34 nmol/L and 3.36 nmol/L
Plasma concentration, individual subjects (2.5 mg single oral, planned time 8 h): BLQ (Below Limit of Quantification (<3.00 nmol/L)) and 6.55 nmol/L and 5.06 nmol/L
Plasma concentration, individual subjects (2.5 mg single oral, planned time 10 h): BLQ (Below Limit of Quantification (<3.00 nmol/L)) and 5.19 nmol/L and 3.85 nmol/L and 3.08 nmol/L
Plasma concentration, individual subjects (2.5 mg single oral, planned time 12 h): BLQ (Below Limit of Quantification (<3.00 nmol/L)) and 4.76 nmol/L and 4.10 nmol/L and 3.34 nmol/L
Plasma concentration, individual subjects (2.5 mg single oral, planned time 24 h): BLQ (Below Limit of Quantification (<3.00 nmol/L)) and 6.66 nmol/L and 5.03 nmol/L and 3.69 nmol/L and 3.73 nmol/L
Plasma concentration, individual subjects (2.5 mg single oral, planned time 36 h): BLQ (Below Limit of Quantification (<3.00 nmol/L)) and 3.88 nmol/L
Plasma concentration, individual subjects (2.5 mg single oral, planned time 48 h): BLQ (Below Limit of Quantification (<3.00 nmol/L)) and 5.01 nmol/L and 4.22 nmol/L and 3.14 nmol/L
Plasma concentration, individual subjects (2.5 mg single oral, planned time 72 h): BLQ (Below Limit of Quantification (<3.00 nmol/L)) and 3.91 nmol/L
Plasma concentration, individual subjects (2.5 mg single oral, planned time 96 h): BLQ (Below Limit of Quantification (<3.00 nmol/L))
Plasma concentration, individual subjects (2.5 mg single oral, planned time –0.5 h): BLQ (Below Limit of Quantification (<3.00 nmol/L))
CL/F gMean (%gCV) (5 mg single oral dose): 5.82 (23.0) L/h
Plasma concentration, individual subjects (5 mg single oral, planned time 0.5 h): 17.6 nM and 16.1 nM
Plasma concentration, individual subjects (5 mg single oral, planned time 1 h): 139 nM and 113 nM
Plasma concentration, individual subjects (5 mg single oral, planned time 1.5 h): 137 nM and 105 nM
Plasma concentration, individual subjects (5 mg single oral, planned time 2 h): 125 nM and 89.1 nM
Plasma concentration, individual subjects (5 mg single oral, planned time 2.5 h): 113 nM and 99.4 nM
Plasma concentration, individual subjects (5 mg single oral, planned time 3 h): 104 nM and 89.4 nM
Plasma concentration, individual subjects (5 mg single oral, planned time 4 h): 97.2 nM and 80.1 nM
Plasma concentration, individual subjects (5 mg single oral, planned time 5 h): 88.2 nM and 69.3 nM
Plasma concentration, individual subjects (5 mg single oral, planned time 6 h): 74.1 nM and 59.0 nM and 90.2 nM
Plasma concentration, individual subjects (5 mg single oral, planned time 8 h): 67.1 nM and 53.5 nM and 81.4 nM
Plasma concentration, individual subjects (5 mg single oral, planned time 10 h): 63.2 nM and 54.2 nM and 38.5 nM and 58.5 nM
Plasma concentration, individual subjects (5 mg single oral, planned time 12 h): 54.1 nM and 51.5 nM and 32.5 nM
Plasma concentration, individual subjects (5 mg single oral, planned time 24 h): 30.9 nM and 21.5 nM
Plasma concentration, individual subjects (5 mg single oral, planned time 36 h): 19.4 nM and 14.0 nM and 9.68 nM
Plasma concentration, individual subjects (5 mg single oral, planned time 48 h): 20.9 nM and 11.6 nM and 10.6 nM
Plasma concentration, individual subjects (5 mg single oral, planned time 72 h): 12.4 nM and 5.72 nM and 5.44 nM
Plasma concentration, individual subjects (5 mg single oral, planned time 96 h): 7.71 nM and 4.37 nM and 3.26 nM
Plasma concentration, individual subjects (5 mg single oral, planned time –0.5 h): BLQ (Below Limit of Quantification (<3.00 nmol/L))
CL/F gMean (%gCV) (10 mg single oral dose): 4.93 (29.2) L/h
Plasma concentration, individual subjects (10 mg single oral, planned time –0.5 h): BLQ (Below Limit of Quantification (<3.00 nmol/L))
CL/F gMean (%gCV) (20 mg single oral dose): 4.70 (41.2) L/h
BI 187004 plasma concentrations (20 mg single oral, planned time 72 h): BLQ (Below Limit of Quantification (<3.00 nmol/L))
BI 187004 plasma concentrations (20 mg single oral, planned time 96 h): BLQ (Below Limit of Quantification (<3.00 nmol/L))
BI 187004 plasma concentrations (20 mg single oral, planned time –0.5 h): BLQ (Below Limit of Quantification (<3.00 nmol/L))
CL/F gMean (%gCV) (40 mg single oral dose): 4.50 (36.1) L/h
BI 187004 plasma concentrations (40 mg single oral, planned time –0.5 h): BLQ (Below Limit of Quantification (<3.00 nmol/L))
CL/F gMean (%gCV) (80 mg single oral dose): 4.56 (40.2) L/h
BI 187004 plasma concentrations (80 mg single oral, planned time –0.5 h): BLQ (Below Limit of Quantification (<3.00 nmol/L))
CL/F gMean (%gCV) (160 mg single oral dose): 4.21 (19.5) L/h
BI 187004 plasma concentrations (160 mg single oral, planned time 96 h): BLQ (Below Limit of Quantification (<3.00 nmol/L))
BI 187004 plasma concentrations (160 mg single oral, planned time –0.5 h): BLQ (Below Limit of Quantification (<3.00 nmol/L))
Time to Cmax, single subject (subject 64) (240 mg): 24 h
CL/F gMean (%gCV) (240 mg single oral dose): 6.44 (53.4) L/h
BI 187004 plasma concentrations (240 mg single oral, planned time -0.5 h): BLQ (Below Limit of Quantification (<3.00 nmol/L))
CL/F gMean (%gCV) (360 mg single oral dose): 5.48 (25.4) L/h
BI 187004 plasma concentrations (360 mg single oral, planned time –0.5 h): BLQ (Below Limit of Quantification (<3.00 nmol/L))
Apparent clearance (CL/F), range across dose groups (5–360 mg): 4.21—6.44 L/h
concentration at 96 h (male, human, in vivo, po, 240 mg): 18.4 nM
Vd/F (male, human, plasma, oral): 87.9 to 281 L
concentration at 10 h (male, human, plasma, oral, 10 mg, Plasma C10 gMean (range), 10 mg single dose): 174 nM
concentration at 24 h (male, human, plasma, oral, 10 mg, Plasma C24 gMean (range), 10 mg single dose, 24 h): 71.3 nM
concentration at 10 h (male, human, plasma, oral, 20 mg, Plasma C10 gMean (range), 20 mg single dose): 382 nM
concentration at 24 h (male, human, plasma, oral, 20 mg, Plasma C24 gMean (range), 20 mg single dose, 24 h): 161 nM
concentration at 10 h (male, human, plasma, oral, 40 mg, Plasma C10 gMean (range), 40 mg single dose): 796 nM
concentration at 24 h (male, human, plasma, oral, 40 mg, Plasma C24 gMean (range), 40 mg single dose, 24 h): 321 nM
concentration at 10 h (male, human, plasma, oral, 80 mg, Plasma C10 gMean (range), 80 mg single dose): 1530 nM
concentration at 24 h (male, human, plasma, oral, 80 mg, Plasma C24 gMean (range), 80 mg single dose, 24 h): 878 nM
concentration at 10 h (male, human, plasma, oral, 160 mg, Plasma C10 gMean (range), 160 mg single dose): 3000 nM
concentration at 24 h (male, human, plasma, oral, 160 mg, Plasma C24 gMean (range), 160 mg single dose, 24 h): 1630 nM
concentration at 10 h (male, human, plasma, oral, 240 mg, Plasma C10 gMean (range), 240 mg single dose): 2600 nM
concentration at 24 h (male, human, plasma, oral, 240 mg, Plasma C24 gMean (range), 240 mg single dose, 24 h): 2130 nM
concentration at 10 h (male, human, plasma, oral, 360 mg, Plasma C10 gMean (range), 360 mg single dose): 5300 nM
concentration at 24 h (male, human, plasma, oral, 360 mg, Plasma C24 gMean (range), 360 mg single dose, 24 h): 2690 nM
Tmax (male, human, plasma, po): 1 to 1.5 h
AUC(0-t) [1]: 0.212 µM·h
Cmax [1]: 11.8 nM
Tmax [1]: 1 h
concentration at 24 h (male, human, plasma, po, 2.5 mg, C24 gMean (%gCV), 2.5 mg single oral dose): 4.54 nM
concentration at 1 h [2]: 13.3 nM
concentration at 1.5 h [2]: 11.2 nM
concentration at 2 h [2]: 8.77 nM
concentration at 2.5 h [2]: 7.99 nM
concentration at 3 h [2]: 6.87 nM
concentration at 4 h [2]: 6.4 nM
concentration at 5 h [2]: 6.97 nM
concentration at 6 h [2]: 5.61 nM
concentration at 10 h [2]: 4.53 nM
concentration at 12 h [2]: 4.66 nM
concentration at 24 h (male, human, plasma, po, 2.5 mg, Plasma concentration Mean, 2.5 mg single oral, 24 h): 4.66 nM
concentration at 48 h [2]: 3.99 nM
concentration at 1 h [3]: 7.86 nM
concentration at 1.5 h [3]: 12.1 nM
concentration at 2 h [3]: 9.41 nM
concentration at 2.5 h [3]: 8.45 nM
concentration at 3 h [3]: 6.66 nM
concentration at 4 h [3]: 6.03 nM
concentration at 5 h [3]: 7.1 nM
concentration at 6 h [3]: 5.78 nM
concentration at 10 h [3]: 4.52 nM
concentration at 12 h [3]: 4.43 nM
concentration at 24 h (male, human, plasma, po, 2.5 mg, Plasma concentration Median, 2.5 mg single oral, 24 h): 4.19 nM
concentration at 48 h [3]: 3.9 nM
concentration at 1 h [4]: 10.8 nM
concentration at 1.5 h [4]: 10.1 nM
concentration at 2 h [4]: 8.02 nM
